Laboratory results: US12559529B2, “NPY2 receptor agonists” (Boehringer Ingelheim International GmbH, priority 2019, dated 2026)

Key:
human NPY1 receptor = molecular target: T1, human NPY1 receptor (Homo sapiens, UniProt P25929); assay: HTRF cAMP Gi assay, hY1R; type: cell-based; conditions: Table 4; CHO-K1 cells
T1 construct: expressed in transfected cells; host or cells: CHO-K1
T1 sequence (P25929 1-384): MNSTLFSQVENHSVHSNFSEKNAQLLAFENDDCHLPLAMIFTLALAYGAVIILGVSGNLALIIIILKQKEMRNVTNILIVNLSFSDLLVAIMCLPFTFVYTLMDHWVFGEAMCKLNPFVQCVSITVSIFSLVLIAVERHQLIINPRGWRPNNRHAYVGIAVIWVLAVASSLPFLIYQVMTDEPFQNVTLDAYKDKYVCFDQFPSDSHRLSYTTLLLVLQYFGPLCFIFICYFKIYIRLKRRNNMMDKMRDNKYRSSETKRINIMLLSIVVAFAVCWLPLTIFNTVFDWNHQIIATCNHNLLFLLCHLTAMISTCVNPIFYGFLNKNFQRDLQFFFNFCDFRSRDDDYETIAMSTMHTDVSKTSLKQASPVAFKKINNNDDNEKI
Method: (§1) Briefly, the production of intracellular cAMP will generate a competition between unlabeled cAMP and exogenously added d2-cAMP for anti-cAMP antibodies conjugated to cryptate. CHO-K1 cells stably expressing the human NPY1, NPY2, NPY4 and NPY5 receptors were used with the cells brought to life from a frozen stock immediately before assay performance. 2000 cells per well were applied for all four NPY receptor subtype assays. A 384-well format was used applying a total volume of 20 μl using 5 μl cells, 2.5 μl peptide agonist, 2.5 μl forskolin and 5 μl of each of the fluorophores. […] Concentration-response evaluation of compounds was performed with 11 concentrations of agonist peptides (covering 3 decades). EC50 values were calculated by nonlinear regression using sigmoid concentration-response with variable slope.

human NPY4 receptor = molecular target: T2, human NPY4 receptor (Homo sapiens, UniProt P50391); assay: HTRF cAMP Gi assay, hY4R; type: cell-based; conditions: Table 4; CHO-K1 cells
T2 construct: expressed in transfected cells; host or cells: CHO-K1

human NPY5 receptor = molecular target: T3, human NPY5 receptor (Homo sapiens, UniProt Q15761); assay: HTRF cAMP Gi assay, hY5R
T3 sequence (Q15761 1-445): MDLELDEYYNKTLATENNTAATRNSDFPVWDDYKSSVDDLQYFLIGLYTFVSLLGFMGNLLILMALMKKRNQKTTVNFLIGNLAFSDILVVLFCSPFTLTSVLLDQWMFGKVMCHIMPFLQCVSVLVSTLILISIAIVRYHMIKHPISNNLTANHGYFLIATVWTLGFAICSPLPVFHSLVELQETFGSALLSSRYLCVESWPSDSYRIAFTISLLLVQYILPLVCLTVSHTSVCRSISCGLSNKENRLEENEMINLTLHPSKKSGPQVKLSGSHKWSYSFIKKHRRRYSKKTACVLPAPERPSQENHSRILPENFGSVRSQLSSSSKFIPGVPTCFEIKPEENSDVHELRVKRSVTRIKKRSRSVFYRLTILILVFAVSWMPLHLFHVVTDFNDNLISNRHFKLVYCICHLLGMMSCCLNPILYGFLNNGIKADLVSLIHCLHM

normal NMRI mice = assay: Effect on acute food intake in normal NMRI mice; type: in vivo; conditions: male NMRI mice, 10 nmol/kg subcutaneously once
Procedure, shortened: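 Male NMRI mice acclimatized in an HM-2 real-time food intake monitoring system, fasted 6 h before dark phase. Single subcutaneous dose of 10 nmol/kg peptide given 1 h before dark; n=7-8. Food intake expressed as % of vehicle group (50 mM phosphate pH7, 5% Mannitol).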

human NPY2 receptor = molecular target: T4, human NPY2 receptor (Homo sapiens, UniProt P49146); assay: HTRF cAMP Gi assay, hY2R
T4 sequence (P49146 1-381): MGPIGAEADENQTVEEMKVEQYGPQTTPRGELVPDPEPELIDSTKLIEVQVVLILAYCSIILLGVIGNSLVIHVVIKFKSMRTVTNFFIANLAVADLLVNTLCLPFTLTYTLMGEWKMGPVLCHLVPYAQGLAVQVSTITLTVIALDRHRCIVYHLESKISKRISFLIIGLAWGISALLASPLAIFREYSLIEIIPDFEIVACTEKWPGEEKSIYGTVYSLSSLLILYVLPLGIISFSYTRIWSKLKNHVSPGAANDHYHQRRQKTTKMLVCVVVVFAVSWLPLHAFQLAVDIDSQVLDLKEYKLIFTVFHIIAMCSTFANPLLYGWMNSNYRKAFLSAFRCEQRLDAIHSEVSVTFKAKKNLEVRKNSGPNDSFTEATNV
Method: as §1

[1] = molecular target: T5, Human Neuropeptide Y2 Receptor (Homo sapiens, UniProt P49146); assay: Radioligand binding competition assay (RLB); conditions: Table 3; human 125I-PYY (1-36) 0.02 nM, Y2 receptor membranes; read-out: Ki
T5 construct: purchased CHEMICON HTS066M
T5 sequence (P49146 1-381): T4 sequence (P49146 1-381)
Procedure, shortened: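 Peptide dilutions made in pH 7.4 HEPES assay buffer with 0.2% ovalbumin; human Y2 receptor membranes added at 0.5 μg protein/well; plates shaken 2 h at room temperature; reaction stopped by vacuum filtration onto PEI-treated GF/C filters with ice-cold high-salt washes; radioactivity counted by scintillation.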

T2 sequence (P50391 whole entry): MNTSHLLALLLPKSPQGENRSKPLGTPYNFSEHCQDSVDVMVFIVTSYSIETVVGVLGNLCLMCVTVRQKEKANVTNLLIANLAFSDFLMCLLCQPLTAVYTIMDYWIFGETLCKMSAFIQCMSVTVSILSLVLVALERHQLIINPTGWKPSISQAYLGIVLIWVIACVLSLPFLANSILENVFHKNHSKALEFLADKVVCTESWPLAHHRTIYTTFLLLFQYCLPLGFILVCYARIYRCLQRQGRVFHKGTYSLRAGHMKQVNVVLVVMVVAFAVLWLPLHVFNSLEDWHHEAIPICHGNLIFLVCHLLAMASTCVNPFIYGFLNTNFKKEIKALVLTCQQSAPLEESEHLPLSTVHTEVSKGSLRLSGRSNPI

Row | EC50 (human NPY1 receptor) | EC50 (human NPY4 receptor) | EC50 (human NPY5 receptor) | EC50 (human NPY2 receptor) | Ki [1] | Compound | Acute Food Intake 24 h [% vehicle] (normal NMRI mice)
1 | > 5000 nM | > 5000 nM | > 5000 nM | 0.334 nM |  | CC[C@H](C)[C@H](NC(=O)[C@H](CCC(=O)O)NC(=O)[C@H](CCC(=O)O)NC(=O)[C@@H]1CCCN1C(=O)[C@H](CO)NC(=O)[C@H](C)NC(=O)[C@H](CC(=O)O)NC(=O)[C@H](CCC(=O)O)NC(=O)[C@H](CCC(=O)O)NC(=O)[C@@H]1CCCN1C(=O)[C@H](CCCCNC(=O)COCCOCCNC(=O)COCCOCCNC(=O)CC[C@H](NC(=O)CCCCCCCCCCCCCCCCC(=O)O)C(=O)O)NC(=O)[C@H](CCC(=O)O)NC(=O)[C@@H]1CCCN1C(=O)[C@H](C)NC(=O)CC(C)C)C(=O)N[C@@H](CCC(N)=O)C(=O)N[C@@H](CCC(N)=O)C(=O)N[C@@H](Cc1ccc(O)cc1)C(=O)N[C@@H](Cc1ccc(O)cc1)C(=O)N[C@H](C(=O)N[C@@H](CO)C(=O)N[C@@H](CC(C)C)C(=O)N[C@@H](CCCNC(=N)N)C(=O)N[C@@H](Cc1c[nH]cn1)C(=O)N[C@@H](Cc1ccc(O)cc1)C(=O)N[C@@H](Cc1ccc(O)cc1)C(=O)N[C@@H](CC(N)=O)C(=O)N[C@@H](Cc1c[nH]c2ccccc12)C(=O)N[C@@H](CC(C)C)C(=O)N[C@H](C(=O)N[C@@H](CCCNC(=N)N)C(=O)N[C@@H](CCC(N)=O)C(=O)N[C@@H](CCCNC(=N)N)C(=O)N[C@@H](Cc1ccc(O)cc1)C(N)=O)[C@@H](C)O)C(C)C [Compound 11, N{alpha-4}-(3-methylbutanoyl)-N{epsilon-7}-[2-(2-{2-[2-(2-{2-[(4S)-4-carboxy-4-(17-carboxyheptadecanamido)butanamido]ethoxy}ethoxy)acetamido]ethoxy}ethoxy)acetamido]-[4A,7K,9E,17I,18Q,19Q,22V,28Y,30W,31L]hPYY (4-36)] | 42 % vehicle
2 | > 5000 nM | > 5000 nM | > 5000 nM | 0.167 nM | 3.71 nM | CC(C)CC(=O)N[C@@H](C)C(=O)N1CCC[C@H]1C(=O)N[C@@H](CCC(=O)O)C(=O)N[C@@H](CCCCNC(=O)COCCOCCNC(=O)COCCOCCNC(=O)CC[C@H](NC(=O)CCCCCCCCCCCCCCCCC(=O)O)C(=O)O)C(=O)N1CCC[C@H]1C(=O)N[C@@H](CCC(=O)O)C(=O)N[C@@H](CCC(=O)O)C(=O)N[C@@H](CC(=O)O)C(=O)N[C@@H](C)C(=O)N[C@@H](CCC(=O)O)C(=O)N1CCC[C@H]1C(=O)N[C@@H](CCC(=O)O)C(=O)N[C@@H](CCC(=O)O)C(=O)N[C@@H](CC(C)C)C(=O)N[C@@H](CCC(N)=O)C(=O)N[C@@H](CCC(N)=O)C(=O)N[C@@H](Cc1ccc(O)cc1)C(=O)N[C@@H](Cc1ccc(O)cc1)C(=O)N[C@H](C(=O)N[C@@H](CO)C(=O)N[C@@H](CC(C)C)C(=O)N[C@@H](CCCNC(=N)N)C(=O)N[C@@H](Cc1c[nH]cn1)C(=O)N[C@@H](Cc1ccc(O)cc1)C(=O)N[C@@H](Cc1ccc(O)cc1)C(=O)N[C@@H](CC(N)=O)C(=O)N[C@@H](Cc1c[nH]c2ccccc12)C(=O)N[C@@H](CC(C)C)C(=O)N[C@H](C(=O)N[C@@H](CCCNC(=N)N)C(=O)N[C@@H](CCC(N)=O)C(=O)N[C@@H](CCCNC(=N)N)C(=O)N[C@@H](Cc1ccc(O)cc1)C(N)=O)[C@@H](C)O)C(C)C [Compound 18, N{alpha-4}-(3-methylbutanoyl)-N{epsilon-7}-[2-(2-{2-[2-(2-{2-[(4S)-4-carboxy-4-(17-carboxyheptadecanamido)butanamido]ethoxy}ethoxy)acetamido]ethoxy}ethoxy)acetamido]-[4A,7K,9E,13E,18Q,19Q,22V,28Y,30W,31L]hPYY (4-36)] | 58 % vehicle
3 | > 5000 nM | > 5000 nM | > 5000 nM | 0.159 nM | 3.22 nM | CC(C)CC(=O)N[C@@H](C)C(=O)N1CCC[C@H]1C(=O)N[C@@H](CCC(=O)O)C(=O)N[C@@H](CCCCNC(=O)COCCOCCNC(=O)COCCOCCNC(=O)CC[C@H](NC(=O)CCCCCCCCCCCCCCCCC(=O)O)C(=O)O)C(=O)N1CCC[C@H]1C(=O)N[C@@H](CCC(=O)O)C(=O)N[C@@H](CCC(=O)O)C(=O)N[C@@H](CCC(=O)O)C(=O)N[C@@H](C)C(=O)N[C@H](C(=O)N1CCC[C@H]1C(=O)N[C@@H](CCC(=O)O)C(=O)N[C@@H](CCC(=O)O)C(=O)N[C@@H](CC(C)C)C(=O)N[C@@H](CCC(N)=O)C(=O)N[C@@H](CCCNC(=N)N)C(=O)N[C@@H](Cc1ccc(O)cc1)C(=O)N[C@@H](Cc1ccc(O)cc1)C(=O)N[C@H](C(=O)N[C@@H](CO)C(=O)N[C@@H](CC(C)C)C(=O)N[C@@H](CCCNC(=N)N)C(=O)N[C@@H](Cc1c[nH]cn1)C(=O)N[C@@H](Cc1ccc(O)cc1)C(=O)N[C@@H](Cc1ccc(O)cc1)C(=O)N[C@@H](CC(N)=O)C(=O)N[C@@H](Cc1c[nH]c2ccccc12)C(=O)N[C@@H](CC(C)C)C(=O)N[C@H](C(=O)N[C@@H](CCCNC(=N)N)C(=O)N[C@@H](CCC(N)=O)C(=O)N[C@@H](CCCNC(=N)N)C(=O)N[C@@H](Cc1ccc(O)cc1)C(N)=O)[C@@H](C)O)C(C)C)[C@@H](C)O [Compound 41, N{alpha-4}-(3-methylbutanoyl)-N{epsilon-7}-[2-(2-{2-[2-(2-{2-[(4S)-4-carboxy-4-(17-carboxyheptadecanamido)butanamido]ethoxy}ethoxy)acetamido]ethoxy}ethoxy)acetamido]-[4A,7K,9E,11E,13T,18Q,22V,28Y,30W,31L]hPYY (4-36)] | 44 % vehicle
4 | > 5000 nM | > 5000 nM | > 5000 nM | 0.152 nM | 3.3 nM | CC(C)CC(=O)N[C@@H](C)C(=O)N1CCC[C@H]1C(=O)N[C@@H](CCC(=O)O)C(=O)N[C@@H](CCCCNC(=O)COCCOCCNC(=O)COCCOCCNC(=O)CC[C@H](NC(=O)CCCCCCCCCCCCCCCCC(=O)O)C(=O)O)C(=O)N1CCC[C@H]1C(=O)N[C@@H](CCC(=O)O)C(=O)N[C@@H](CCC(=O)O)C(=O)N[C@@H](CCC(=O)O)C(=O)N[C@@H](C)C(=O)N[C@@H](CO)C(=O)N1CCC[C@H]1C(=O)N[C@@H](CCC(=O)O)C(=O)N[C@@H](CCC(=O)O)C(=O)N[C@@H](CC(C)C)C(=O)N[C@@H](CCC(N)=O)C(=O)N[C@@H](CCCNC(=N)N)C(=O)N[C@@H](Cc1ccc(O)cc1)C(=O)N[C@@H](Cc1ccc(O)cc1)C(=O)N[C@H](C(=O)N[C@@H](CO)C(=O)N[C@@H](CC(C)C)C(=O)N[C@@H](CCCNC(=N)N)C(=O)N[C@@H](Cc1c[nH]cn1)C(=O)N[C@@H](Cc1ccc(O)cc1)C(=O)N[C@@H](Cc1ccc(O)cc1)C(=O)N[C@@H](CC(N)=O)C(=O)N[C@@H](Cc1c[nH]c2ccccc12)C(=O)N[C@@H](CC(C)C)C(=O)N[C@H](C(=O)N[C@@H](CCCNC(=N)N)C(=O)N[C@@H](CCC(N)=O)C(=O)N[C@@H](CCCNC(=N)N)C(=O)N[C@@H](Cc1ccc(O)cc1)C(N)=O)[C@@H](C)O)C(C)C [Compound 46, N{alpha-4}-(3-methylbutanoyl)-N{epsilon-7}-[2-(2-{2-[2-(2-{2-[(4S)-4-carboxy-4-(17-carboxyheptadecanamido)butanamido]ethoxy}ethoxy)acetamido]ethoxy}ethoxy)acetamido]-[4A,7K,9E,11E,18Q,22V,28Y,30W,31L]hPYY (4-36)] | 39 % vehicle
